Literature values as cited in patent US20090264421A1 (priority 2007, published 2009).

What was measured:
TrxR1 = target: T1, TrxR1 (Homo sapiens, UniProt Q16881); settings: cited from earlier work
T1 sequence (Q16881 1-499 isoform Q16881-5): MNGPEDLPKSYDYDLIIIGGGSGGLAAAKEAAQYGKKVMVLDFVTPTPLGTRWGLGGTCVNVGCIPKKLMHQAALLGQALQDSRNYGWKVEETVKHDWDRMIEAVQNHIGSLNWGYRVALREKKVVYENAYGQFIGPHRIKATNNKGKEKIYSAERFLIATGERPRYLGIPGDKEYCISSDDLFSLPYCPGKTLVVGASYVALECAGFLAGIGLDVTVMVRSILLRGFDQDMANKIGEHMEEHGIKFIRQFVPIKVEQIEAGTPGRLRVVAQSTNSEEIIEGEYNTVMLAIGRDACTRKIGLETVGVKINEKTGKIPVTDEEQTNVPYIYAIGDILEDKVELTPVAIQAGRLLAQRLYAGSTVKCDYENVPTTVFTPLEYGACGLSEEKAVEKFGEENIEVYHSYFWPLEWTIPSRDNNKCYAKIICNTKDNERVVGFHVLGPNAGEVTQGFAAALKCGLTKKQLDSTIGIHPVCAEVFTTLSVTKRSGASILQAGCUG

glutaredoxin = target: T2, glutaredoxin (Homo sapiens, UniProt P35754); settings: cited from earlier work
T2 sequence (P35754 1-106): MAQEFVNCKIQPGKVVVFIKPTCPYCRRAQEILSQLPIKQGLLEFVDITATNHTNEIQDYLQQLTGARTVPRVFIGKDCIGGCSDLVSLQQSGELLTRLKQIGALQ

Compound: COc1c(Cl)cc2c(c1OC)N(C)[C@@H]1N3C(=O)[C@@]4(C)SS[C@@]3(C(=O)N4C)[C@H](O)[C@]21O [sporidesmin]
- TrxR1 inhibition (TrxR1): not to significantly inhibit TrxR1
- glutaredoxin inhibition (glutaredoxin): inhibitor of glutaredoxin
